The text below walks through data of patent US6699861B1, “Anti-quinazoline compounds” (Cancer Research Technology Limited, priority 1999, dated 2004).

“And” between values parts separate entries of the source, which are not always exact repeats. Identical values can stand only once. Like-named read-outs stand apart in the source and are kept apart here. Some results are limits rather than exact numbers.

Data set [1] concerns W1L2 human lymphoblastoid cells. Put plainly: Growth inhibition of W1L2 cells. In kind it is cell-based.
Data set [2] has as its system W1L2:R865 cell line. Put plainly: Growth inhibition of W1L2:R865 cells (acquired resistance to CB 30865). It is filed as cell-based, human. How it is done:
A cell line was raised with acquired resistance to CB 30865, denoted W1L2:R865, by stepwise selection over ˜9 months.
The generated W1L2:R865 cell line was routinely cultured in 0.03 μm CB 30865 under the same conditions as W1L2 cells, with cells being grown in the absence of CB 30865 for ˜2 weeks before an experiment.
The activity of compounds against W1L2:R865 cells was determined within parallel experiments by 72 h growth inhibition assay (Coulter counts). CB 30865 was included in every experiment as an internal control.

Data set [3] relates to W1L2 cells. Put plainly: Growth inhibition of W1L2 in presence of folate metabolites (dThd/HX). It is filed as cell-based, human. The note with it: Homo sapiens; in the presence of 10 μM thymidine (dThd) and 50 μM hypoxantine (HX); read-out: Inhibition of Cell Growth IC50, W1L2 + dThd/HX (C). How it is done: Growth inhibition assays as described above were performed in W1L2 cells where compounds were incubated in the presence of 10 μM thymidine (dThd) and 50 μM hypoxantine (HX) (purchased from Sigma Chemical Co.).

Data set [4] relates to W1L2:C1 cells. The data set can be described thus: Growth inhibition of W1L2:C1 cells (elevated TS). In kind it is cell-based, human. The note with it: read-out: Inhibition of Cell Growth IC50, W1L2:C1 (B). How it is done: (§1) W1L2 human lymphoblastoid, W1L2:C1 (elevated TS; O'Connor et al, Cancer Res, 52, 1137-1143 (1992)) and L1210 mouse leukaemia cells were cultured in suspension and A2780, PXN94, 41M, HX62, SKOV3 (human ovarian carcinoma), MCF-7 (human breast carcinoma), HT29 and SW480 (human colon carcinoma) cell lines were grown as monolayers as described in Jackman et al, Cancer Res, 50, 5212-5218 (1990) and Jackman et al, Br. J. Cancer, 71, 914-924 (1995).
(§2) Growth inhibition studies with suspension cells were performed as described in Jackman et al, Cancer Res, 50, 5212-5218 (1990). Activity against the adherent cell lines was assessed by MTT assay (Twentyman et al, Br. J. Cancer, 56, 279-285 (1987)) where cells were seeded in 96-well plates at 1000-3000 cells per well, incubated overnight and then exposed to the appropriate drug concentrations for 96-120 h.

The conditions of data set [5]: background statement on the known compound; cited from earlier work.
Data set [6] addresses mouse thymidylate synthase (TS) (Mus musculus, UniProt P07607). The data set can be described thus: Inhibition of L1210 thymidylate synthase (TS).
Data set [7] concerns CH1 ovarian carcinoma cell line. The data set can be described thus: Hollow fibre assay, CH1 cells. It is filed as in vivo, nude mice. The conditions noted are these: for O.D. as % control: harvested day 5. How it is done:
(§3) As adopted by the NCI, the hollow fibre assay (Hollingshead et al. 1995, Life Sciences, 57: 13 1-141) was used as an initial means of assessing the in vivo antitumour activity of CB 300919.
(§4) The hollow fibre assay was performed using the CH1 ovarian carcinoma cell line and the HT29 colon line.
(§5) Results are expressed as a % Treated/Control (T/C).

Data set [8] concerns HT29 colon line. Put plainly: Hollow fibre assay, HT29 cells. In kind it is in vivo, nude mice. The conditions noted are these: for O.D. as % control: harvested day 5. As to the method:
as §3, §4, §5

Data set [9] is described as follows: Tolerability (weight loss, deaths, MTD) in nude mice.
Procedure: One day later (day 1), CB 300919 was administered by ip injection, daily for 3 days (days 1-3).
Mice injected with CB 300919 i.p. on days 1-3.
The nature of data set [10]: MTD in DBA2 mice. The note with it: mouse, in vivo. As to the method:
MTD in DBA2 mice ˜1.5 mg/kg/d×3 days.

The test system of data set [11] is HT29 cells. The data set can be described thus: In vitro sensitivity of HT29 cells compared with CH1 cells. It is filed as cell-based, human. As to the method: as §1, §2
The mark [12] stands for this setting: Homo sapiens, Lymphoblastoid cell, W1L2 suspension cells, read-out: Inhibition of Cell Growth IC50, W1L2 (B).
Where [13] appears, read: 0.25 mg/kg/d i.p. daily x 3 days.
The mark [14] stands for this setting: 0.50 mg/kg/d i.p. daily x 3 days.
Where [15] appears, read: 0.75 mg/kg/d i.p. daily x 3 days.
Setting [16] is: Homo sapiens, 72 h, read-out: Inhibition of Cell Growth IC50, W1L2:R865 (D), 72 h growth inhibition assay (Coulter counts).

Sequence of mouse thymidylate synthase (TS) (P07607 whole entry): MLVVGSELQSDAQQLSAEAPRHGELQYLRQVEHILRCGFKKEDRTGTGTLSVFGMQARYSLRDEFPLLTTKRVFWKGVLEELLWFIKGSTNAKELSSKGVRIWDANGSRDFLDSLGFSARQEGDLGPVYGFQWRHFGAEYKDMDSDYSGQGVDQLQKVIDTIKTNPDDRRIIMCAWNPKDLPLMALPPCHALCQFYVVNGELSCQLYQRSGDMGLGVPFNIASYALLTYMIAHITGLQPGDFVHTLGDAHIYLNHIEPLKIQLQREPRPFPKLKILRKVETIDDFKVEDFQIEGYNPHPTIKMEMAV

Regarding `C#CCN(Cc1cc2c(=O)[nH]c(C)nc2cc1Br)c1ccc(C(=O)NCc2cccnc2)cc1` [CB30865, 4-[N-[7-bromo-2-methyl-4-oxo-3,4-dihydroquinazolin-6-ylmethyl]-N-(prop-2-ynyl)amino]-N-(3-pyridylmethyl)benzamide, reference compound], the IC50 in data set [1] (setting [12]) turned out to be 2.8 ± 0.5 nM; in data set [1] (Homo sapiens, Lymphoblastoid cell, W1L2 cells, 72 h, read-out: 72 h IC50), 2.8 nM; in data set [2] (Homo sapiens, 72 h growth inhibition assay (Coulter counts), read-out: Inhibition of Cell Growth IC50, W1L2:R865 (D)), 610 nM; in data set [3], 2.2 ± 0.82 nM; in data set [4] (Homo sapiens) it was 2.3 ± 0.15 nM. The water-solubility entry in data set [5] is on record as “very low water-solubility”.
Consider `C#CCN(Cc1cc2c(=O)n(C)c(CN3CCN(C)CC3)nc2cc1Cl)c1ccc(C(=O)NCc2cccnc2)cc1` [CB300919, 4-[N-[7-Chloro-3-methyl-2-(4-methyl-piperazin-1-yl)methyl-4-oxo-3,4-dihydroquinazolin-6-ylmethyl]-N-(prop-2-ynyl)amino]-N-(3-pyridylmethyl)benzamide], for which the IC50 is 0.49 ± 0.24 nM in data set [1] (W1L2 suspension cells, read-out: Inhibition of Cell Growth IC50, W1L2 (B)); 13000 ± 4500 nM in data set [2] (read-out: Inhibition of Cell Growth IC50, W1L2:R865 (D), 72 h growth inhibition assay (Coulter counts)); 0.32 nM in data set [3]; 0.44 nM and 0.28 nM in data set [4]. In addition, the “Inhibition of L1210 TS (A) IRP* (inverse relative potency)” value (shortened to “Inhibition … (inverse relative potency)”) in data set [6] is given as over 2500. Further, the “optical density (% Treated/Control)” value in data set [7] (CH1 cells in the fibres, all doses given IP (0.25-0.75 mg/kg/day×3 days)) is reported as under 15%. Also, the “O.D. as % control” value in data set [7] (CH1 ovarian, 0.25 mg/kg/d i.p. daily x 3 days) was 13%; in [7] (CH1 ovarian, 0.50 mg/kg/d i.p. daily x 3 days), 13%; in [7] (CH1 ovarian, 0.75 mg/kg/d i.p. daily x 3 days) it was 13%; in data set [8] (setting [13]) it was 92%; in [8] (setting [14]) it was 34%; in data set [8] (setting [15]), 29%. Moreover, the “Dose to give 50% inhibition of tumour growth” value in data set [7] (CH1 ovarian, i.p. daily x 3 days) was under 0.25 mg/kg/day; in [8] (i.p. daily x 3 days), 0.4 mg/kg/day. Besides, the “Weight loss (up to day 5)” value was “No sig. wt. loss” in data set [9] (setting [13]), 0-19% wt. loss in [9] (setting [14]) and 9-22% wt. loss in [9] (setting [15]). Further, the “Comments: mice killed” value in data set [9] (0.75 mg/kg/d i.p. daily x 3 days, d4, 22% wt. loss) is “⅓ killed (d4; 22% wt. loss”. Further, the MTD at 3 days is 0.5 to 0.75 mg/kg/day in data set [9] (nude, mouse, in vivo, intraperitoneal) and about 1.5 mg/kg/day in data set [10]. In [11], the “lower sensitivity of HT29 cells in vitro” value was about 10 fold.
Consider `C#CCN(Cc1cc2c(=O)n(C)c(CN(CC)CC)nc2cc1Cl)c1ccc(C(=O)NCc2cccnc2)cc1` [CB300922, 4-[N-[2-Diethylaminomethyl-7-chloro-3-methyl-4-oxo-3,4-dihydroquinazolin-6-ylmethyl]-N-(prop-2-ynyl)amino]-N-(3-pyridylmethyl)benzamide], for which the melting point is 180 to 182 °C. Also, in [1] (setting [12]), the IC50 stood at 0.71 ± 0.0076 nM. For the same compound, in data set [2] (setting [16]), the IC50 was over 50000 nM. Also, the “Inhibition … (inverse relative potency)” value in data set [6] is recorded as over 2500. For the same compound, the IC50 in data set [3] worked out at 0.73 ± 0.05 nM. The IC50 in data set [4] (Homo sapiens) was found to be 0.42 nM.
`C#CCN(Cc1cc2c(=O)n(C)c(CN3CCCCC3)nc2cc1Cl)c1ccc(C(=O)NCc2cccnc2)cc1` [CB300923, 4-[N-[7-Chloro-3-methyl-4-oxo-2-piperidinomethyl-3,4-dihydroquinazolin-6-ylmethyl]-N-(prop-2-ynyl)amino]-N-(3-pyridylmethyl)benzamide]: the melting point fell in the range of 148 to 150 °C. Further, the IC50 in data set [1] (setting [12]) stood at 0.8 nM. Moreover, in data set [2] (setting [16]), the IC50 is 14000 nM. Moreover, in data set [6], the “Inhibition … (inverse relative potency)” value was over 4211. Also, the IC50 in data set [3] is 0.78 nM.

The melting point is the temperature of the solid-liquid transition.
